Data as given in ChEMBL document CHEMBL1139580, “Pyrrolo[1,2-a][1,4]benzodiazepine: a novel class of non-azole anti-dermatophyte anti-fungal agents” (Bioorg Med Chem Lett, 2005).
Values after ≈ are worked out from the molar mass of the structure shown.

What was measured:
Format in all cases: functional
Candida parapsilosis = assay: Minimum inhibitory concentration against Candida B66126 parapsilosis by microdilution method; details: Lodderomyces parapsilosis
[1] = Minimum inhibitory concentration against Sporothrix schenckii B64284 by microdilution method
[2] = Minimum inhibitory concentration against Trichophyton rubrum B68183 by microdilution method
[3] = Minimum inhibitory concentration against Trichophyton mentagrophytes B70554 by microdilution method; details: Trichophyton benhamiae
[4] = Minimum inhibitory concentration against Microsporum canis B68128 by microdilution method
Aspergillus fumigatus = assay: Minimum inhibitory concentration against Aspergillus fumigatus B42928 by microdilution method
Cryptococcus neoformans = assay: Minimum inhibitory concentration against Cryptococcus neoformans B66663 by microdilution method

Row | SMILES | MIC (Candida parapsilosis) [µM] | MIC [1] | MIC [2] [µM] | MIC [3] [µM] | MIC [4] [µM] | MIC (Aspergillus fumigatus) [µM] | MIC (Cryptococcus neoformans) [µM]
1 | CCc1ccc(C2=NCc3ccccc3-n3cccc32)cc1 | 0.32 (≈ 0.0916 µg/mL) | 100 µM (≈ 28.6 µg/mL) | 0.065 (≈ 0.0186 µg/mL) | 0.32 (≈ 0.0916 µg/mL) | 0.32 (≈ 0.0916 µg/mL) | 1 (≈ 0.286 µg/mL) | 100 (≈ 28.6 µg/mL)
2 | CCc1ccc(C2NCc3ccc(Cl)cc3-n3cccc32)cc1 (centres undefined) | 100 (≈ 32.3 µg/mL) | 100 µM (≈ 32.3 µg/mL) | 0.1 (≈ 0.0323 µg/mL) | 1 (≈ 0.323 µg/mL) | 1 (≈ 0.323 µg/mL) | 100 (≈ 32.3 µg/mL) | 100 (≈ 32.3 µg/mL)
3 | CCc1ccc([C@@H]2NCc3c(Cl)cccc3-n3cccc32)cc1 | 100 (≈ 32.3 µg/mL) | 100 µM (≈ 32.3 µg/mL) | 0.32 (≈ 0.103 µg/mL) | 1 (≈ 0.323 µg/mL) | 0.32 (≈ 0.103 µg/mL) | 55 (≈ 17.8 µg/mL) | 100 (≈ 32.3 µg/mL)
4 | Clc1cccc2c1CNC(c1ccc(Br)cc1)c1cccn1-2 (centres undefined) | 100 (≈ 37.4 µg/mL) | 100 µM (≈ 37.4 µg/mL) | 0.21 (≈ 0.0785 µg/mL) | 0.21 (≈ 0.0785 µg/mL) | 0.32 (≈ 0.12 µg/mL) | 10 (≈ 3.74 µg/mL) | 100 (≈ 37.4 µg/mL)
5 | CCc1ccc(C2NCc3c(SC)cccc3-n3cccc32)cc1 (centres undefined) | 100 (≈ 33.4 µg/mL) | 100 µM (≈ 33.4 µg/mL) | 0.32 (≈ 0.107 µg/mL) | 3.2 (≈ 1.07 µg/mL) | 3.2 (≈ 1.07 µg/mL) | 100 (≈ 33.4 µg/mL) | 100 (≈ 33.4 µg/mL)
6 | CCCc1ccc(C2NCc3c(Cl)cccc3-n3cccc32)cc1 (centres undefined) | 6.6 (≈ 2.22 µg/mL) | 100 µM (≈ 33.7 µg/mL) | 0.32 (≈ 0.108 µg/mL) | 0.66 (≈ 0.222 µg/mL) | 0.66 (≈ 0.222 µg/mL) | 100 (≈ 33.7 µg/mL) | 100 (≈ 33.7 µg/mL)
7 | CCc1ccc(C2NCc3cc(Cl)ccc3-n3cccc32)cc1 (centres undefined) | 100 (≈ 32.3 µg/mL) | 100 | 3.2 (≈ 1.03 µg/mL) | 51.6 (≈ 16.7 µg/mL) | 100 (≈ 32.3 µg/mL) | 100 (≈ 32.3 µg/mL) | 100 (≈ 32.3 µg/mL)
8 | CCc1ccc(C2NCc3ccccc3-n3cccc32)cc1 (centres undefined) | 100 (≈ 28.8 µg/mL) | 100 µM (≈ 28.8 µg/mL) | 1 (≈ 0.288 µg/mL) | 3.2 (≈ 0.923 µg/mL) | 100 (≈ 28.8 µg/mL) | 1 (≈ 0.288 µg/mL) | 100 (≈ 28.8 µg/mL)
9 | CCc1ccc(C2=NCc3c(Cl)cccc3-n3cccc32)cc1 | 0.32 (≈ 0.103 µg/mL) | 100 µM (≈ 32.1 µg/mL) | 0.01 (≈ 0.00321 µg/mL) | 0.03 (≈ 0.00962 µg/mL) | 0.03 (≈ 0.00962 µg/mL) | 0.32 (≈ 0.103 µg/mL) | 100 (≈ 32.1 µg/mL)
10 | CCc1cccc(C2NCc3c(Cl)cccc3-n3cccc32)c1 (centres undefined) | 10 (≈ 3.23 µg/mL) | 100 µM (≈ 32.3 µg/mL) | 0.1 (≈ 0.0323 µg/mL) | 1 (≈ 0.323 µg/mL) | 1 (≈ 0.323 µg/mL) | 10 (≈ 3.23 µg/mL) | 100 (≈ 32.3 µg/mL)
11 | Clc1ccc(C2NCc3c(Cl)cccc3-n3cccc32)cc1 (centres undefined) | 100 (≈ 32.9 µg/mL) | 100 µM (≈ 32.9 µg/mL) | 0.32 (≈ 0.105 µg/mL) | 0.66 (≈ 0.217 µg/mL) | 0.66 (≈ 0.217 µg/mL) | 51.6 (≈ 17 µg/mL) | 100 (≈ 32.9 µg/mL)
12 | CN(C/C=C/C#CC(C)(C)C)Cc1cccc2ccccc12 [TERBINAFINE] | 0.32 (≈ 0.0933 µg/mL) | 0.32 µM (≈ 0.0933 µg/mL) | 0.003 (≈ 0.000874 µg/mL) | 0.01 (≈ 0.00291 µg/mL) | 0.03 (≈ 0.00874 µg/mL) | 0.32 (≈ 0.0933 µg/mL) | 1 (≈ 0.291 µg/mL)
